The values that follow come from US20190048016A1, “SUBSTITUTED BRIDGED UREA ANALOGS AS SIRTUIN MODULATORS” (GlaxoSmithKline Intellectual Property(No.2)Limited, priority 2014, published 2019).

The test concerns the target T1, SIRT1 (Homo sapiens, UniProt Q96EB6).
T1 sequence (Q96EB6 1-747): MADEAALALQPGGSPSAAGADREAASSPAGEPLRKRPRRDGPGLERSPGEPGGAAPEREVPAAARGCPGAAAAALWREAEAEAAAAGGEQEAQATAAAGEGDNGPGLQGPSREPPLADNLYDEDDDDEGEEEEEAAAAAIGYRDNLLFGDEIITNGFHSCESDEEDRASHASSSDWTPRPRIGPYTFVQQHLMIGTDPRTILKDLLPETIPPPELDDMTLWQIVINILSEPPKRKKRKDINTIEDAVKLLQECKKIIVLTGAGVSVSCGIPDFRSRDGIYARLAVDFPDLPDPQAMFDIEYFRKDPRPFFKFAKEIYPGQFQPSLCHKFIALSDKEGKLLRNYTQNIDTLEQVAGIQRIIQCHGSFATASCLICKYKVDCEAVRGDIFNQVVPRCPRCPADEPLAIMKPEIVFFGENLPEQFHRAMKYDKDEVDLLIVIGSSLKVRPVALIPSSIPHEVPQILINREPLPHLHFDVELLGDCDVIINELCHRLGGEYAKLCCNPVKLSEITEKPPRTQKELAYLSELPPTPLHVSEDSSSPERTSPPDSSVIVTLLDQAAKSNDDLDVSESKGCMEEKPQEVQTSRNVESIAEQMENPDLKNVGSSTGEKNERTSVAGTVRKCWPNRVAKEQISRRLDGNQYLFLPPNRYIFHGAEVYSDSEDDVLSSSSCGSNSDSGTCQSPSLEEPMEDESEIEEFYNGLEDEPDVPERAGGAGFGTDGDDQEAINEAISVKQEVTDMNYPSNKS
The test can be described thus: Trp mass spectrometry assay of SIRT1 activation (deacetylation of Ac-R-H-K-K(Ac)-W-NH2 peptide, OAADPR formation). Conditions: Trp peptide 0.5 μM, 120 μM βNAD+, 10 nM SIRT1, 25 min, 25° C.; for Emax: 25 min, read-out: TRP MAX RESP (percent maximum fold activation relative to control = 100%). The format is biochemical. From the text:
Mass spectrometry based assays were used to identify modulators of SIRT1 activity. The TAMRA based assay utilized a peptide having 20 amino acid residues as follows: Ac-EE-K(biotin)-[…](Ac)NleSTEG-K(5TMR)-EE-NH2 (SEQ ID NO: 1), wherein K(Ac) is an acetylated lysine residue and Nle is a norleucine. The peptide was labeled with the fluorophore 5TMR (excitation 540 nm/emission 580 nm) at the C-terminus. The sequence of the peptide substrate was based on p53 with several modifications. In addition, the methionine residue naturally present in the sequence was replaced with the norleucine because the methionine may be susceptible to oxidation during synthesis and purification. The Trp based assay utilized a peptide having an amino acid residues as follows: Ac-R-H-K-K(Ac)-W-NH2 (SEQ ID NO: 2).
The Trp mass spectrometry assay was conducted as follows. 0.5 μM peptide substrate and 120 μM βNAD^+ were incubated with 10 nM SIRT1 for 25 minutes at 25° C. in a reaction buffer (50 mM HEPES pH 7.5, […], 1 mM DTT, 0.05% BSA). The SIRT1 protein was obtained by cloning the SirT1 gene into a T7-promoter containing vector, which was then expressed in BL21(DE3) bacterial cells and purified as described in further detail below. Test compound was added at varying concentrations to this reaction mixture and the resulting reactions were monitored. After the 25 minute incubation with SIRT1, 10 μL of 10% formic acid was added to stop the reaction. The resulting reactions were sealed and frozen for later mass spec analysis. The relative SIRT1 activity was then determined by measuring the amount of O-acetyl-ADP-ribose (OAADPR) formed (or, alternatively, the amount of deacetylated Trp peptide generated) by the NAD-dependent sirtuin deacetylation reaction in the presence of varying concentrations of the test compound versus control reactions lacking the test compound. The degree to which the test agent activated deacetylation by SIRT1 was expressed as EC1.5 (i.e., the concentration of compound required to increase SIRT1 activity by 50% over the control lacking test compound), and Percent Maximum Activation (i.e., the maximum activity relative to control (100%) obtained for the test compound).
A control for inhibition of sirtuin activity was conducted by adding 1 μL of 500 mM nicotinamide as a negative control at the start of the reaction (e.g., permits determination of maximum sirtuin inhibition). A control for activation of sirtuin activity was conducted using 10 nM of sirtuin protein, with 1 μL of DMSO in place of compound, to determine the amount of deacetylation of the substrate at a given time point within the linear range of the assay. This time point was the same as that used for test compounds and, within the linear range, the endpoint represents a change in velocity.
For the above assay, SIRT1 protein was expressed and purified as follows. The SirT1 gene was cloned into a T7-promoter containing vector and transformed into BL21(DE3). The protein was expressed by induction with 1 mM IPTG as an N-terminal His-tag fusion protein at 18° C. overnight and harvested at 30,000×g. Cells were lysed with lysozyme in lysis buffer (50 mM Tris-HCl, 2 mM Tris[2-carboxyethyl] phosphine (TCEP), 10 μM ZnCl2, 200 mM NaCl) and further treated with sonication for 10 min for complete lysis. The protein was purified over a Ni-NTA column (Amersham) and fractions containing pure protein were pooled, concentrated and run over a sizing column (Sephadex S200 26/60 global). The peak containing soluble protein was collected and run on an Ion-exchange column (MonoQ). Gradient elution (200 mM-500 mM NaCl) yielded pure protein. This protein was concentrated and dialyzed against dialysis buffer (20 mM Tris-HCl, 2 mM TCEP) overnight. The protein was aliquoted and frozen at −80° C. until further use.
Sirtuin-modulating compounds of Formula (I) that activated SIRT1 were identified using the assay described above and are shown below in Table 1. […]

For `O=C(Nc1ccnc(OC[C@@H](O)CO)n1)N1c2nc(-c3cccc(C(F)(F)F)c3)c(Cl)cc2N2CCC[C@H]1C2` [Example 81, (9S)-3-chloro-N-(2-((S)-2,3-dihydroxypropoxy)pyrimidin-4-yl)-2-(3-(trifluoromethyl)phenyl)-8,9-dihydro-6H-5,9-methanopyrido[2,3-b][1,4]diazocine-10(7H)-carboxamide], the Emax was at least 150% and the “TRP Activity (EC1.5, concentration of compound required to increase SIRT1 activity by 50% over control)” value was “A (EC1.5<1 μM)”.

On to `Cc1cc(-c2ccc3c(n2)N(C(=O)Nc2cccnc2)[C@H]2CCCN3C2)ccn1` [Example 32, (9S)-2-(2-methylpyridin-4-yl)-N-(pyridin-3-yl)-8,9-dihydro-6H-5,9-methanopyrido[2,3-b][1,4]diazocine-10(7H)-carboxamide], for which the Emax is at least 150% and the “TRP Activity (EC1.5, concentration of compound required to increase SIRT1 activity by 50% over control)” value was “A (EC1.5<1 μM)”.

As to `C[C@@H](NC(=O)c1ccc2c(n1)N(C(=O)Nc1ccc(OC[C@H](O)CO)nn1)[C@H]1CCCN2C1)C(F)(F)F` [Example 55, (9S)-N10-(6-((R)-2,3-dihydroxypropoxy)pyridazin-3-yl)-N2-((R)-1,1,1-trifluoropropan-2-yl)-8,9-dihydro-6H-5,9-methanopyrido[2,3-b][1,4]diazocine-2,10(7H)-dicarboxamide], the Emax is at least 150%.

Take `O=C(NCC(F)(F)F)c1ccc2c(n1)N(C(=O)Nc1ccccn1)[C@H]1CCCN2C1` [Example 37, (9S)-N10-(pyridin-2-yl)-N2-(2,2,2-trifluoroethyl)-8,9-dihydro-6H-5,9-methanopyrido[2,3-b][1,4]diazocine-2,10(7H)-dicarboxamide]: the Emax is at least 150% and the “TRP Activity (EC1.5, concentration of compound required to increase SIRT1 activity by 50% over control)” value is “A (EC1.5<1 μM)”.

Consider `Cc1cc(-c2cc(C)c3c(n2)N(C(=O)Nc2cccnc2)[C@H]2CCCN3C2)ccn1` [Example 90, (9S)-4-methyl-2-(2-methylpyridin-4-yl)-N-(pyridin-3-yl)-8,9-dihydro-6H-5,9-methanopyrido[2,3-b][1,4]diazocine-10(7H)-carboxamide], for which the Emax is at least 150% and the “TRP Activity (EC1.5, concentration of compound required to increase SIRT1 activity by 50% over control)” value is “A (EC1.5<1 μM)”.

Consider `O=C(Nc1ccnc(OC[C@H](O)CO)n1)N1c2nc(-c3cccc(C(F)(F)F)c3)c(Cl)cc2N2CCC[C@H]1C2` [Example 88, (9S)-3-chloro-N-(2-((R)-2,3-dihydroxypropoxy)pyrimidin-4-yl)-2-(3-(trifluoromethyl)phenyl)-8,9-dihydro-6H-5,9-methanopyrido[2,3-b][1,4]diazocine-10(7H)-carboxamide], for which the Emax is at least 150% and the “TRP Activity (EC1.5, concentration of compound required to increase SIRT1 activity by 50% over control)” value is reported as “A (EC1.5<1 μM)”.

In the case of `O=C(Nc1cnccn1)N1c2nc(N3CCCC(C(F)(F)F)C3)ccc2N2CCC[C@H]1C2` (single isomer, unassigned) [Example 30], the Emax is at least 150% and the “TRP Activity (EC1.5, concentration of compound required to increase SIRT1 activity by 50% over control)” value is “A (EC1.5<1 μM)”.

Regarding `O=C(Nc1cccnn1)N1c2nc(-c3ccnc(C(F)(F)F)c3)ccc2N2CCC[C@H]1C2` [Example 6, (9S)-N-(pyridazin-3-yl)-2-(2-(trifluoromethyl)pyridin-4-yl)-8,9-dihydro-6H-5,9-methanopyrido[2,3-b][1,4]diazocine-10(7H)-carboxamide], the Emax was at least 150% and the “TRP Activity (EC1.5, concentration of compound required to increase SIRT1 activity by 50% over control)” value is listed as “A (EC1.5<1 μM)”.

As for `Cc1cc(-c2ccc3c(n2)N(C(=O)Nc2cncc(C)n2)[C@H]2CCCN3C2)ccn1` [Example 21], the Emax was at least 150% and the “TRP Activity (EC1.5, concentration of compound required to increase SIRT1 activity by 50% over control)” value was “B (EC1.5 1-25 μM)”.

Turning to `O=C(Nc1cnc(OC[C@@H](O)CO)cn1)N1c2nc(-c3cccc(C(F)(F)F)c3)c(Cl)cc2N2CCC[C@H]1C2` [Example 77, (9S)-3-chloro-N-(5-((S)-2,3-dihydroxypropoxy)pyrazin-2-yl)-2-(3-(trifluoromethyl)phenyl)-8,9-dihydro-6H-5,9-methanopyrido[2,3-b][1,4]diazocine-10(7H)-carboxamide], the Emax was at least 150% and the “TRP Activity (EC1.5, concentration of compound required to increase SIRT1 activity by 50% over control)” value is reported as “A (EC1.5<1 μM)”.

As for `O=C(Nc1ccc(F)cn1)N1c2nc(N3CCCC(C(F)(F)F)C3)ccc2N2CCC[C@H]1C2` (single isomer, unassigned) [Example 29], the “TRP Activity (EC1.5, concentration of compound required to increase SIRT1 activity by 50% over control)” value was “B (EC1.5 1-25 μM)” and the “TRP MAX RESP (percent maximum fold activation relative to control = 100%)” value was “A (Fold activation≥150%)”.

For `Cc1ccc2c(NC(=O)N3c4nc(C(=O)NC5CC5(F)F)ccc4N4CCC[C@H]3C4)n[nH]c2n1` (single isomer, unassigned) [Example 53], the “TRP Activity (EC1.5, concentration of compound required to increase SIRT1 activity by 50% over control)” value is recorded as “A (EC1.5<1 μM)”.

Turning to `O=C(Nc1cnc(OC[C@H](O)CO)cn1)N1c2nc(-c3cccc(C(F)(F)F)c3)c(Cl)cc2N2CCC[C@H]1C2` [Example 73, (9S)-3-chloro-N-(5-((R)-2,3-dihydroxypropoxy)pyrazin-2-yl)-2-(3-(trifluoromethyl)phenyl)-8,9-dihydro-6H-5,9-methanopyrido[2,3-b][1,4]diazocine-10(7H)-carboxamide], the Emax is at least 150% and the “TRP Activity (EC1.5, concentration of compound required to increase SIRT1 activity by 50% over control)” value was “A (EC1.5<1 μM)”.

Take `O=C(Nc1ncccn1)N1c2nc(N3CCCC(C(F)(F)F)C3)ccc2N2CCC[C@H]1C2` (single isomer, unassigned) [Example 22]: the “TRP Activity (EC1.5, concentration of compound required to increase SIRT1 activity by 50% over control)” value is reported as “A (EC1.5<1 μM)”.

`Cc1cc(-c2ccc3c(n2)N(C(=O)Nc2cnn(C)c2)[C@H]2CCCN3C2)ccn1` [Example 26, (9S)-N-(1-methyl-1H-pyrazol-4-yl)-2-(2-methylpyridin-4-yl)-8,9-dihydro-6H-5,9-methanopyrido[2,3-b][1,4]diazocine-10(7H)-carboxamide]: the Emax is at least 150% and the “TRP Activity (EC1.5, concentration of compound required to increase SIRT1 activity by 50% over control)” value is reported as “B (EC1.5 1-25 μM)”.
